Measured values published in ChEMBL document CHEMBL6178015, “Discovery of a Novel Serine-Targeting Covalent Inhibitor against HCES2A for Treating Drug-induced Diarrhea and Ulcerative Colitis” (J Med Chem, 2025).
One block for each compound: values may come before it. Activity calls are given as the source filed them. No cut-off for these calls is given here.

Tests used:
[1] = Inhibition of human CES2A using fluorescein diacetate as substrate preincubated for 3 mins followed by substrate addition and measured after 30 mins by fluorescence microplate reader
[2] = species on record: Homo sapiens; assay: Selectivity index, ratio of IC50 for inhibition of human CES1A to IC50 for inhibition of human CES2A
[3] = Inhibition of human CES1A using NLMe as substrate preincubated for 3 mins followed by substrate addition and measured after 20 mins by chemiluminescence analysis
[4] = Irreversible inhibition of human CES2A using fluorescein diacetate as substrate preincubated for 3 mins followed by substrate addition by fluorescence microplate reader
[5] = tested on: Mus musculus; assay: Reversal of irinotecan-induced gut toxicity in C57BL/6J mouse bearing MC38 cells assessed as restoration of IL-6 levels in colon tissues at 30 to 60 mg/kg,po administered daily and measured after 14 days by ELISA; type: functional, organism-based; settings: dose 30-60 mg/kg, time 14.0 day
[6] = tested on: Mus musculus; assay: Reversal of irinotecan-induced gut toxicity in C57BL/6J mouse bearing MC38 cells assessed as change in tumor size at 30 to 60 mg/kg,po administered daily and measured after 14 days; type: functional, organism-based; settings: dose 30-60 mg/kg, time 14.0 day
[7] = tested on: Mus musculus; assay: Reversal of irinotecan-induced gut toxicity in C57BL/6J mouse bearing MC38 cells assessed as reduction in colon shortening at 30 to 60 mg/kg,po administered daily and measured after 14 days; type: functional, organism-based; settings: dose 30-60 mg/kg, time 14.0 day
[8] = tested on: Mus musculus; assay: Antiinflammatory activity against DSS-induced ulcerative colitis mouse model assessed as reduction in inflammatory infiltration in lamina propria at 30 to 60 mg/kg,IG administered once daily 7 days by H and E staining based analysis; type: functional, organism-based; settings: dose 30-60 mg/kg, time 7.0 day
[9] = tested on: Mus musculus; assay: Reversal of irinotecan-induced gut toxicity in C57BL/6J mouse bearing MC38 cells assessed as amelioration of epithelial crypts loss at 30 to 60 mg/kg,po administered daily and measured after 14 days by H and E staining based analysis; type: functional, organism-based; settings: dose 30-60 mg/kg, time 14.0 day
[10] = tested on: Mus musculus; assay: Antiinflammatory activity against DSS-induced ulcerative colitis mouse model assessed as preservation of colonic mucosal structure at 30 to 60 mg/kg,IG administered once daily 7 days by H and E staining based analysis; type: functional, organism-based; settings: dose 30-60 mg/kg, time 7.0 day
[11] = Irreversible inhibition of human CES2A using fluorescein diacetate as substrate preincubated for 33 mins followed by substrate addition by fluorescence microplate reader
[12] = biological target: hERG (KCNH2) (Homo sapiens, UniProt Q12809); assay: Inhibition of hERG expressed in HEK293 cells at 10 uM relative to control; type: toxicity, cell-based; settings: HEK293 cells that express hERG
hERG (KCNH2), sequence (Q12809 whole entry): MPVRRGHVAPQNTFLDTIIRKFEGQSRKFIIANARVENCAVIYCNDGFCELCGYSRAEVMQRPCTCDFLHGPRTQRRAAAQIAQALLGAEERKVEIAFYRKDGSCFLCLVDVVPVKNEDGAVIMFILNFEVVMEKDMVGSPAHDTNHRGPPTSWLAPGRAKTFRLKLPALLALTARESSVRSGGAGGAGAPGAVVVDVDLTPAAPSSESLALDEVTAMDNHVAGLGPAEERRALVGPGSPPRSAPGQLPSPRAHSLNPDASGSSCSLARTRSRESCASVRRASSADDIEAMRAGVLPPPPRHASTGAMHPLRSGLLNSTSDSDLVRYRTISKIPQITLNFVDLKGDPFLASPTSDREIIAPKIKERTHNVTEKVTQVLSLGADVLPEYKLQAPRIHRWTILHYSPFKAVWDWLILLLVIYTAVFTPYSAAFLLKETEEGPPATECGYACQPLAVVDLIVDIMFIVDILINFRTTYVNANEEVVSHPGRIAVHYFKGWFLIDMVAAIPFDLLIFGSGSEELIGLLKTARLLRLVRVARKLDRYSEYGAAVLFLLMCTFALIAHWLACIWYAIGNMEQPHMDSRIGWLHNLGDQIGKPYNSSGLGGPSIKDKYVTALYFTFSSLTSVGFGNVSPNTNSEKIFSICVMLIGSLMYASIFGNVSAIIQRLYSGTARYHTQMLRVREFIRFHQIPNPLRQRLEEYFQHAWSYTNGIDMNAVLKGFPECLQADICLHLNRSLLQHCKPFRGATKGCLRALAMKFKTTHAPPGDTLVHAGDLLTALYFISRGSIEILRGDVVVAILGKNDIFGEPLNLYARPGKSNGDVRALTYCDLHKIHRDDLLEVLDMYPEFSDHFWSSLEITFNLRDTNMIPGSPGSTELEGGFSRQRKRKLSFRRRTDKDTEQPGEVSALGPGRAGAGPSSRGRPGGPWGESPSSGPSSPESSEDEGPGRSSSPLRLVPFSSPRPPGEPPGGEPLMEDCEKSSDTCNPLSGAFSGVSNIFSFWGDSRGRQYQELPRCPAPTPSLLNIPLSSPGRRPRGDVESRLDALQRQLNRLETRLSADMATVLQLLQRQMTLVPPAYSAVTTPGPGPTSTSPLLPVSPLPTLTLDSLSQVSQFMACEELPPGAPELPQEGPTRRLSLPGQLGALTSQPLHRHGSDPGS

[13] = tested on: Mus musculus; assay: Antiinflammatory activity against DSS-induced ulcerative colitis mouse model assessed as upregulation of occludin expression in colon tissues at 700 mg/kg,IG administered once daily 7 days by immunohistochemical analysis; type: functional, organism-based; settings: time 7.0 day
[14] = Irreversible inhibition of human CES2A assessed as inhibition constant incubated for 5 to 30 mins
[15] = biological target: Voltage-gated inwardly rectifying potassium channel KCNH2 (Homo sapiens, UniProt Q12809); assay: Inhibition of hERG expressed in HEK293 cells; type: toxicity, cell-based
Voltage-gated inwardly rectifying potassium channel KCNH2, sequence (Q12809 whole entry): as above

[16] = species on record: Homo sapiens; assay: Irreversible inhibition of human CES2A assessed as inactivation constant incubated for 5 to 30 mins; settings: time 5-30 min
[17] = tested on: Mus musculus; assay: Reversal of irinotecan-induced gut toxicity in C57BL/6J mouse bearing MC38 cells assessed as restoration of IL-1beta levels in colon tissues at 30 to 60 mg/kg,po administered daily and measured after 14 days by ELISA; type: functional, organism-based; settings: dose 30-60 mg/kg, time 14.0 day
[18] = tested on: Mus musculus; assay: Antiinflammatory activity against DSS-induced ulcerative colitis mouse model assessed as reduction in crypt destruction in colon tissues at 30 to 60 mg/kg,IG administered once daily 7 days by H and E staining based analysis; type: functional, organism-based; settings: dose 30-60 mg/kg, time 7.0 day
[19] = tested on: Mus musculus; assay: Antiinflammatory activity against DSS-induced ulcerative colitis mouse model assessed as upregulation of ZO-1 expression in colon tissues at 700 mg/kg,IG administered once daily 7 days by immunohistochemical analysis; type: functional, organism-based; settings: time 7.0 day
[20] = species on record: Homo sapiens; assay: Irreversible inhibition of human CES2A at 0.02 nM preincubated for 33 mins and measured after 8 hrs dialysis by fluorescence microplate reader; settings: time 513.0 min
[21] = Inhibition of human CES2A in HepG2 cells incubated for 1 hrs by NCEN and Hoechst 33342 staining based assay; type: cell-based
[22] = tested on: Mus musculus; assay: Reversal of irinotecan-induced gut toxicity in C57BL/6J mouse bearing MC38 cells assessed as increase in ZO-1 expression level in colon tissues at 30 to 60 mg/kg,po administered daily and measured after 14 days by immunohistochemical analysis; type: functional, organism-based; settings: dose 30-60 mg/kg, time 14.0 day
[23] = tested on: Mus musculus; assay: Reversal of irinotecan-induced gut toxicity in C57BL/6J mouse bearing MC38 cells assessed as effect on tumor volume at 30 to 60 mg/kg,po administered daily and measured after 14 days; type: functional, organism-based; settings: dose 30-60 mg/kg, time 14.0 day
[24] = tested on: Mus musculus; assay: Reversal of irinotecan-induced gut toxicity in C57BL/6J mouse bearing MC38 cells assessed as restoration of TNF-alpha levels in colon tissues at 30 to 60 mg/kg,po administered daily and measured after 14 days by ELISA; type: functional, organism-based; settings: dose 30-60 mg/kg, time 14.0 day
[25] = tested on: HepG2; assay: Inhibition of human CES2A in HepG2 cells assessed as decrease in green fluorescence at 5 to 60 nM incubated for 1 hrs by NCEN and Hoechst 33342 staining based assay; type: cell-based; settings: dose 5-60 nM
[26] = tested on: Mus musculus; assay: Reversal of irinotecan-induced gut toxicity in C57BL/6J mouse bearing MC38 cells assessed as amelioration of inflammatory cell infiltration loss at 30 to 60 mg/kg,po administered daily and measured after 14 days by H and E staining based analysis; type: functional, organism-based; settings: dose 30-60 mg/kg, time 14.0 day
[27] = tested on: Mus musculus; assay: Antiinflammatory activity against DSS-induced ulcerative colitis mouse model assessed as inhibition of colon contracture at 30 to 60 mg/kg,IG administered once daily 7 days; type: functional, organism-based; settings: dose 30-60 mg/kg, time 7.0 day
[28] = tested on: Mus musculus; assay: Reversal of irinotecan-induced gut toxicity in C57BL/6J mouse bearing MC38 cells assessed as effect on tumor weight at 30 to 60 mg/kg,po administered daily and measured after 14 days; type: functional, organism-based; settings: dose 30-60 mg/kg, time 14.0 day
[29] = tested on: Mus musculus; assay: Antiinflammatory activity against DSS-induced ulcerative colitis mouse model assessed as restoration of colon histology at 700 mg/kg,IG administered once daily 7 days by AB-PAS staining based analysis; type: functional, organism-based; settings: time 7.0 day
[30] = tested on: Mus musculus; assay: Antiinflammatory activity against DSS-induced ulcerative colitis mouse model assessed as restoration of IL-1beta levels in colon tissues at 30 to 60 mg/kg,IG administered once daily 7 days by ELISA; type: functional, organism-based; settings: dose 30-60 mg/kg, time 7.0 day
[31] = tested on: Mus musculus; assay: Antiinflammatory activity against DSS-induced ulcerative colitis mouse model assessed as decrease in DAI score at 30 to 60 mg/kg,IG administered once daily 7 days; type: functional, organism-based; settings: dose 30-60 mg/kg, time 7.0 day
[32] = tested on: Mus musculus; assay: Antiinflammatory activity against DSS-induced ulcerative colitis mouse model assessed as alleviation in body weight loss at 30 to 60 mg/kg,IG administered once daily 7 days; type: functional, organism-based; settings: dose 30-60 mg/kg, time 7.0 day
[33] = tested on: Mus musculus; assay: Reversal of irinotecan-induced gut toxicity in C57BL/6J mouse bearing MC38 cells assessed as amelioration of goblet cell apoptosis at 30 to 60 mg/kg,po administered daily and measured after 14 days by H and E staining based analysis; type: functional, organism-based; settings: dose 30-60 mg/kg, time 14.0 day
[34] = tested on: Mus musculus; assay: Reversal of irinotecan-induced gut toxicity in C57BL/6J mouse bearing MC38 cells assessed as weight recovery at 30 to 60 mg/kg,po administered daily and measured after 14 days; type: functional, organism-based; settings: dose 30-60 mg/kg, time 14.0 day
[35] = species on record: Homo sapiens; assay: Potency index, ratio of LC-20W IC50 to test compound IC50 for inhibition of human CES2A using fluorescein diacetate as substrate
[36] = tested on: Mus musculus; assay: Antiinflammatory activity against DSS-induced ulcerative colitis mouse model assessed as restoration of TNF-alpha levels in colon tissues at 30 to 60 mg/kg,IG administered once daily 7 days by ELISA; type: functional, organism-based; settings: dose 30-60 mg/kg, time 7.0 day
[37] = tested on: Mus musculus; assay: Antiinflammatory activity against DSS-induced ulcerative colitis mouse model assessed as upregulation of claudin-1 expression in colon tissues at 700 mg/kg,IG administered once daily 7 days by immunohistochemical analysis; type: functional, organism-based; settings: time 7.0 day
[38] = tested on: Mus musculus; assay: Reversal of irinotecan-induced gut toxicity in C57BL/6J mouse bearing MC38 cells assessed as reduction in diarrhea at 30 to 60 mg/kg,po administered daily and measured after 14 days; type: functional, organism-based; settings: dose 30-60 mg/kg, time 14.0 day
[39] = tested on: Mus musculus; assay: Reversal of irinotecan-induced gut toxicity in C57BL/6J mouse bearing MC38 cells assessed as increase in claudin-1 expression level in colon tissues at 30 to 60 mg/kg,po administered daily and measured after 14 days by immunohistochemical analysis; type: functional, organism-based; settings: dose 30-60 mg/kg, time 14.0 day
[40] = tested on: Mus musculus; assay: Antiinflammatory activity against DSS-induced ulcerative colitis mouse model assessed as restoration of IL-6 levels in colon tissues at 30 to 60 mg/kg,IG administered once daily 7 days by ELISA; type: functional, organism-based; settings: dose 30-60 mg/kg, time 7.0 day

IC50 [1]: 383 nM
SMILES: C=CCOC(=O)Nc1ccc(C)cc1-c1cc2c(C(=O)CCCCCC)cccc2o1

Ratio IC50 [2]: > 9600
IC50 [3]: > 10000 nM
IC50 [1]: 1.04 nM
SMILES: CCCCCCC(=O)c1cccc2oc(-c3cc(C)ccc3NC(=O)OCC(C)C)cc12

IC50 [1]: 881 nM
SMILES: CCCCCCCCC(=O)c1cccc2oc(-c3ccccc3N)cc12

IC50 [1]: 944 nM
SMILES: CCCCCCC(=O)c1cccc2oc(-c3ccccc3N)cc12

SMILES: CCCCCCCCC(=O)c1cccc2oc(-c3cc(OC)ccc3OC(=O)N(C)CC)cc12
Ratio IC50 [2]: 6.4
IC50 [3]: 4 nM
IC50 [1]: 0.625 nM

IC50 [4]: 0.12 nM
Ratio IC50 [2]: 59
IC50 [3]: 6.95 nM
IC50 [11]: 0.028 nM
Ki [14]: 0.43 nM
Kinact [16]: 0.052 min⁻¹
inhibition [20]: Active
IC50 [21]: 19.6 nM
IC50 [1]: 0.118 nM
SMILES: CCCCCCCCC(=O)c1cccc2oc(-c3cc(OC)ccc3OC(=O)N3CCCC3)cc12
Activity [5]: Active
Activity [6]: inactive
Activity [7]: Active
Activity [8]: Active
Activity [9]: Active
Activity [10]: Active
inhibition at 10 µM [12]: 14.6%
Activity [13]: Active
IC50 [15]: > 10000 nM
Activity [17]: Active
Activity [18]: Active
Activity [19]: Active
Activity [22]: Active
Activity [23]: Active
Activity [24]: Active
inhibition [25]: Active
Activity [26]: Active
Activity [27]: Active
Activity [28]: inactive
Activity [29]: Active
Activity [30]: Active
Activity [31]: Active
Activity [32]: Active
Activity [33]: Active
Activity [34]: Active
Ratio IC50 [35]: 13
Activity [36]: Active
Activity [37]: Active
Activity [38]: Active
Activity [39]: Active
Activity [40]: Active

IC50 [1]: 3640 nM
SMILES: CCCCCCC(=O)c1cccc2oc(-c3cc(C)ccc3NC(=O)OCc3ccccc3)cc12

IC50 [1]: 616 nM
SMILES: CCCCCCC(=O)c1cccc2oc(-c3ccccc3NC(=O)OCc3ccccc3)cc12

IC50 [1]: 623 nM
SMILES: CCCCCCC(=O)c1cccc2oc(-c3cc(C)ccc3NC(=O)OCCCC)cc12

Ratio IC50 [2]: 53.9
IC50 [3]: 29.2 nM
IC50 [1]: 0.542 nM
SMILES: CCCCCCCCC(=O)c1cccc2oc(-c3cc(OC)ccc3OC(=O)N3CCOCC3)cc12

SMILES: CN(C)C(=O)C(CCN1CCC(O)(c2ccc(Cl)cc2)CC1)(c1ccccc1)c1ccccc1 [LOPERAMIDE]
IC50 [1]: 351 nM

IC50 [1]: 11100 nM
SMILES: CCCC(=O)c1cccc2oc(-c3ccccc3N)cc12

IC50 [1]: 596 nM
SMILES: C=CCOC(=O)Nc1ccccc1-c1cc2c(C(=O)CCCCCC)cccc2o1

SMILES: CCCCCCC(=O)c1cccc2oc(-c3cc(OC)ccc3OC(=O)N(C)C)cc12
Ratio IC50 [2]: 44.8
IC50 [3]: 22.9 nM
IC50 [1]: 0.509 nM

IC50 [1]: 6.37 nM
SMILES: CCCCCCCCC(=O)c1cccc2oc(-c3cc(OC)ccc3OC(=O)N(CC)CC)cc12

SMILES: CCCCCCCCC(=O)c1cccc2oc(-c3cc(OC)ccc3OC(=O)N(C)C)cc12
Ratio IC50 [2]: 1260
IC50 [3]: 239 nM
IC50 [1]: 0.189 nM
